According to patent publication US9611262B2, “Substituted 2-azabicycles and their use as orexin receptor modulators” (JANSSEN PHARMACEUTICA NV, priority 2014, dated 2017):

Key:
rat orexin 1 receptor = rat orexin 1 receptor (Rattus norvegicus, UniProt P56718); experiment: Rat orexin 1 receptor radioligand binding (competitive); settings: HEK293 cells stably expressing rat orexin 1 receptor; 4 nM radioligand; averages of 2-20 runs; read-out: rOX1 Ki
Experimental: (§1) The in vitro affinity of the compounds of the invention for the rat/human orexin 1 and human orexin 2 receptors was determined by competitive radioligand binding using [^3H](1-(5-(2-fluoro-phenyl)-2-methyl-thiazol-4-yl)-1-((S)-2-(5-phenyl-(1,3,4)oxadiazol-2-ylmethyl)-pyrrolidin-1-yl)-methanone) (Langmead et al., 2004) and [^3H]EMPA (n-ethyl-2[96-methoxy-pyridin-3-yl)-(toluene-2-sulfonyl)-amino]-N-pyridin-3-ylmethyl acetamide), respectively (Langmead et al., 2004, British Journal of Pharmacology 141:340-346; Malherbe et al., 2004, British Journal of Pharmacology 156:1326-41).
(§2) Data are analyzed using pc-Sandy macro and graphed on Graphpad Prism 5. For analysis, each concentration point is averaged from triplicate values and the averaged values are plotted on Graphpad Prism. The IC50 was determined by applying the following equation (GraphPad Prism 5.0, San Diego) for one site competition where X=log (concentration) and Y=specific binding. Top denotes the total [^3H]— (1-(5-(2-fluoro-phenyl)-2-methyl-thiazol-4-yl)-1-((S)-2-(5-phenyl-(1,3,4)oxadiazol-2-ylmethyl)-pyrrolidin-1-yl)-methanone) binding, bottom denotes the nonspecific [^3H]— (1-(5-(2-fluoro-phenyl)-2-methyl-thiazol-4-yl)-1-((S)-2-(5-phenyl-(1,3,4)oxadiazol-2-ylmethyl)-pyrrolidin-1-yl)-methanone) binding. Graphpad Prism calculates Ki value from IC50 and the pre-determined Kd values for [^3H]— (1-(5-(2-fluoro-phenyl)-2-methyl-thiazol-4-yl)-1-((S)-2-(5-phenyl-(1,3,4)oxadiazol-2-ylmethyl)-pyrrolidin-1-yl)-methanone) and [^3H]-EMPA. The Ki for each compound is then uploaded into 3DX. Each run comprises individual compounds in triplicate. The data in Table 1 and Table 2 represent averages from between 2-20 runs
Rat and Human Orexin 1 Receptor Radioligand Binding Studies
Human Embryonic Kidney 293 cells (HEK293) stably expressing rat orexin 1 receptor (Genebank accession number NM_001525) or Chinese ovary cells (CHO) stably expressing human orexin 1 receptor (Genebank accession number […]) were grown to confluency in DMEM (Hyclone, cat # SH30022), 10% FBS, 1× Pen/Strep, 1× sodium pyruvate, 10 mM HEPES, 600 μg/mL G418 and DMEM/F12 (Gibco, Cat #11039), 10% FBS, 1× Pen/Strep, 600 μg/mL G418 media, respectively on 150 cm^2 tissue culture plates, washed with 5 mM EDTA in PBS (HyClone Dulbecco's Phosphate Buffered Saline 1× with Calcium and Magnesium, Cat # SH30264.01, hereafter referred to simply as PBS) and scraped into 50 ml tubes. After centrifugation (2K×G, 5 min at 4° C.), the supernatant was aspirated and the pellets frozen and stored at −80° C. Cells were resuspended in PBS in the presence of 1 tablet of protease inhibitor cocktail (Roche, Cat. #11836145001) per 50 mL. […] Competition binding experiments in 96 well polypropylene plates were performed using [^3H]— (1-(5-(2-fluoro-phenyl)-2-methyl-thiazol-4-yl)-1-((S)-2-(5-phenyl-(1,3,4)oxadiazol-2-ylmethyl)-pyrrolidin-1-yl)-methanone) (Moraveck Corporation, specific activity=35.3 Ci/mmol), diluted to a 10 nM concentration in PBS (4 nM final). Compounds were solubilized in 100% DMSO (Acros Organics, Cat. #61042-1000) and tested over a range of 7 concentrations (from 0.1 nM to 10 μM). The final concentration of DMSO in the reactions is equal to or less than 0.1%. Total and nonspecific binding was determined in the absence and presence of 10 μM almorexant. The total volume of each reaction is 200 μL (20 μL of diluted compounds, 80 μL of [^3H]— (1-(5-(2-fluoro-phenyl)-2-methyl-thiazol-4-yl)-1-((S)-2-(5-phenyl-(1,3,4)oxadiazol-2-ylmethyl)-pyrrolidin-1-yl)-methanone) diluted in PBS and 100 μL of the cell suspension). Reactions were run for 60 min at room temperature and terminated by filtration through GF/C filter plates (PerkinElmer, Cat. #6005174) presoaked in 0.3% polyethylenimine using the cell harvester (PerkinElmer Filtermate). The plates were washed 3 times by aspirating 30 ml PBS through the plates. Plates were dried in 55° C. oven for 60 min, scintillation fluid was added, and the radioactivity was counted on a Topcount (Packard). […]

human orexin 2 receptor = human orexin 2 receptor (Homo sapiens (Human), UniProt O43614); experiment: Human orexin 2 receptor radioligand binding ([3H]-EMPA competition); settings: HEK293 stably expressing human orexin 2 receptor; 2 nM [3H]-EMPA; averages of 2-20 runs; read-out: hOX2 Ki
human orexin 2 receptor, sequence (O43614 whole entry): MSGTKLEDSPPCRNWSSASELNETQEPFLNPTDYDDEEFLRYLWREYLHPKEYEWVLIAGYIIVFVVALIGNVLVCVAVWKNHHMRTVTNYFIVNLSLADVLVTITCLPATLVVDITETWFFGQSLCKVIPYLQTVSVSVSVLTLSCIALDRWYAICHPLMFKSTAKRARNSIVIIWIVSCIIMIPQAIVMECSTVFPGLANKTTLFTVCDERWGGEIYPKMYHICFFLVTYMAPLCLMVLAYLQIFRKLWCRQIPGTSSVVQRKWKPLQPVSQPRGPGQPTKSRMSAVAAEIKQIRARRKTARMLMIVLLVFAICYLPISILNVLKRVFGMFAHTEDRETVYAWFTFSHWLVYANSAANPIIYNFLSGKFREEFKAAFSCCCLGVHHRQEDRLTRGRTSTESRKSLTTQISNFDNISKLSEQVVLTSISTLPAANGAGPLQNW
Experimental: as §1, §2
Human Orexin 2 Receptor Radioligand Binding Studies
HEK293 stably expressing human orexin 2 receptor (Genebank accession number NM_001526) were grown to confluency in DMEM (Hyclone, cat # SH30022), 10% FBS, 1× Pen/Strep, 1× NaPyruvate, 10 mM HEPES, 600 μg/ml G418 media on 150 cm^2 tissue culture plates, washed with 5 mM EDTA in PBS (HyClone Dulbecco's Phosphate Buffered Saline 1× with Calcium and Magnesium, Cat # SH30264.01, hereafter referred to simply as PBS) and scraped into 50 ml tubes. After centrifugation (2K×G, 5 min at 4° C.), the supernatant was aspirated and the pellets frozen and stored at −80° C. Cells were resuspended in PBS in the presence of 1 tablet of protease inhibitor cocktail (Roche, Cat. #11836145001) per 50 mL. […] Compounds were solubilized in 100% DMSO (Acros Organics, Cat. #61042-1000) and tested over a range of 7 concentration (from 0.1 nM to 10 μM). The final concentration of DMSO in the reactions is equal to or less than 0.1%. Total and nonspecific binding was determined in the absence and presence of 10 μM almorexant. The total volume of each reaction is 200 μL (20 μL of diluted compounds, 80 μL of [^3H]-EMPA diluted in PBS and 100 μL of the cell suspension). Reactions were run for 60 min at room temperature and terminated by filtration through GF/C filter plates (PerkinElmer, Cat. #6005174) presoaked in 0.3% polyethylenimine using the cell harvester (PerkinElmer Filtermate). The plates were washed 3 times by aspirating 30 ml PBS through the plates. Plates were dried in 55° C. oven for 60 min, scintillation fluid was added, and the radioactivity was counted on a Topcount (Packard).

Row | SMILES | Ki (rat orexin 1 receptor) [nM] | Ki (human orexin 2 receptor) [nM]
1 | C[C@@H]1[C@H]2C[C@@H](Oc3ccc(C(F)(F)F)nc3)[C@H](C2)N1C(=O)c1ncccc1-n1nccn1 (relative stereo) [Example 37, (3-(2H-1,2,3-triazol-2-yl)pyridin-2-yl)((1S*,3R*,4R*,6R*)-3-methyl-6-((6-(trifluoromethyl)pyridin-3-yl)oxy)-2-azabicyclo[2.2.1]heptan-2-yl)methanone] | 3720 | > 10000
2 | Cc1ccc(-n2nccn2)c(C(=O)N2[C@H](C)[C@H]3C[C@@H](Oc4ccc(C(F)(F)F)nc4)[C@@H]2C3)n1 (relative stereo) [Example 40, (6-methyl-3-(2H-1,2,3-triazol-2-yl)pyridin-2-yl)((1S*,3R*,4R*,6R*)-3-methyl-6-((6-(trifluoromethyl)pyridin-3-yl)oxy)-2-azabicyclo[2.2.1]heptan-2-yl)methanone] | 544 | > 10000
3 | C[C@@H]1[C@H]2C[C@@H](Oc3ccc(C(F)(F)F)nc3)[C@H](C2)N1C(=O)c1ccccc1-n1nccn1 (relative stereo) [Example 41, (2-(2H-1,2,3-triazol-2-yl)phenyl)((1S*,3R*,4R*,6R*)-3-methyl-6-((6-(trifluoromethyl)pyridin-3-yl)oxy)-2-azabicyclo[2.2.1]heptan-2-yl)methanone] | 300 | > 10000
4 | CC1C2CC(Oc3ccc(C(F)(F)F)cn3)C(C2)N1C(=O)c1ccccc1-c1ncc(F)cn1 (single isomer, unassigned) [Example 19A, (2-(5-fluoropyrimidin-2-yl)phenyl)((1R*,3S*,4S*,6S*)-3-methyl-6-((5-(trifluoromethyl)pyridin-2-yl)oxy)-2-azabicyclo[2.2.1]heptan-2-yl)methanone] | 746 | 
5 | CC1C2CC(Nc3cnc(C(F)(F)F)cn3)C(C2)N1C(=O)c1ccccc1-n1nccn1 (single isomer, unassigned) [Example 68B, (2-(2H-1,2,3-triazol-2-yl)phenyl)((1S*,3R*,4S*,6R*)-3-methyl-6-((5-(trifluoromethyl)pyrazin-2-yl)amino)-2-azabicyclo[2.2.1]heptan-2-yl)methanone] |  | 259
6 | Cc1ccc(-n2nccn2)c(C(=O)N2C(C)C3CC(Nc4cnc(C(F)(F)F)cn4)C2C3)n1 (single isomer, unassigned) [Example 69, (R/S)-(6-methyl-3-(2H-1,2,3-triazol-2-yl)pyridin-2-yl)(3-methyl-6-((5-(trifluoromethyl)pyrazin-2-yl)amino)-2-azabicyclo[2.2.1]heptan-2-yl)methanone] |  | 345
7 | Cc1ccc(-n2nccn2)c(C(=O)N2C(C)C3CC(Nc4cnc(C(F)(F)F)cn4)C2C3)n1 (single isomer, unassigned) [Example 69A, (6-methyl-3-(2H-1,2,3-triazol-2-yl)pyridin-2-yl)((1R*,3S*,4R*,6S*)-3-methyl-6-((5-(trifluoromethyl)pyrazin-2-yl)amino)-2-azabicyclo[2.2.1]heptan-2-yl)methanone] |  | > 10000
8 | Cc1ccc(-n2nccn2)c(C(=O)N2C(C)C3CC(Nc4cnc(C(F)(F)F)cn4)C2C3)n1 (single isomer, unassigned) [Example 69B, (6-methyl-3-(2H-1,2,3-triazol-2-yl)pyridin-2-yl)((1S*,3R*,4S*,6R*)-3-methyl-6-((5-(trifluoromethyl)pyrazin-2-yl)amino)-2-azabicyclo[2.2.1]heptan-2-yl)methanone] |  | 236
9 | C[C@@H]1[C@H]2C[C@@H](Oc3ccc(C(F)(F)F)cn3)[C@H](C2)N1C(=O)c1cccc(-c2ccc(F)cc2)c1 [Example 36, (4′-fluoro-[1,1′-biphenyl]-3-yl)((1S,3R,4R,6R)-3-methyl-6-((5-(trifluoromethyl)pyridin-2-yl)oxy)-2-azabicyclo[2.2.1]heptan-2-yl)methanone] | 845 | > 10000
10 | [2H]C([2H])([2H])[C@]1([2H])[C@H]2C[C@@H](Oc3ccc(C(F)(F)F)cn3)[C@H](C2)N1C(=O)c1cccc(F)c1-n1nccn1 [Example 164, [(1R,2R,4S,5R)-2-deuterio-2-(trideuteriomethyl)-5-[[5-(trifluoromethyl)-2-pyridyl]oxy]-3-azabicyclo[2.2.1]heptan-3-yl]-[3-fluoro-2-(triazol-2-yl)phenyl]methanone] | 5 | 565
11 | [2H]C([2H])([2H])[C@]1([2H])[C@H]2C[C@@H](Oc3ccc(C(F)(F)F)cn3)[C@H](C2)N1C(=O)c1ncc(C)cc1-n1nccn1 [Example 166, [(1R,2R,4S,5R)-2-deuterio-2-(trideuteriomethyl)-5-[[5-(trifluoromethyl)-2-pyridyl]oxy]-3-azabicyclo[2.2.1]heptan-3-yl]-[5-methyl-3-(triazol-2-yl)-2-pyridyl]methanone] |  | 1100
12 | [2H]C([2H])([2H])[C@]1([2H])[C@H]2C[C@@H](Oc3ccc(C(F)(F)F)cn3)[C@H](C2)N1C(=O)c1cc(F)ccc1-c1ncccn1 [Example 167, [(1R,2R,4S,5R)-2-deuterio-2-(trideuteriomethyl)-5-[[5-(trifluoromethyl)-2-pyridyl]oxy]-3-azabicyclo[2.2.1]heptan-3-yl]-(5-fluoro-2-pyrimidin-2-yl-phenyl)methanone] |  | 767
13 | [2H]C1([2H])[C@H]2C[C@@H]([C@@H]1Oc1ccc(C(F)(F)F)cn1)N(C(=O)c1ncc(C)cc1-n1nccn1)[C@@H]2C [Example 200, [(1R,3R,4S,6R)-2,2-dideuterio-6-methyl-3-[[5-(trifluoromethyl)-2-pyridyl]oxy]-5-azabicyclo[2.2.1]heptan-5-yl]-[5-methyl-3-(triazol-2-yl)-2-pyridyl]methanone] |  | 1200
